Measured values as given in publication PMC3662789, “Structural Investigation of a Novel N-Acetyl Glucosamine Binding Chi-Lectin Which Reveals Evolutionary Relationship with Class III Chitinases” (PLoS ONE, 2013).

Biological target: T1, TCLL (tamarind chitinase like lectin) (Tamarindus indica, UniProt S4S1V9)
T1 construct: monomer, glycosylated at Asn146; 33440 Da (deglycosylated 31811 Da); 266 residues modelled (7-272)
Assay: isothermal titration calorimetry (single-site model)
Type: binding
Conditions: 20 mM Tris, pH 7.4, 25°C; 0.3 mM protein, 8 mM sugar in syringe; crystal complex at 1.6 Å with two surface sites S1 and S2

T1 sequence (S4S1V9 entry or part of it): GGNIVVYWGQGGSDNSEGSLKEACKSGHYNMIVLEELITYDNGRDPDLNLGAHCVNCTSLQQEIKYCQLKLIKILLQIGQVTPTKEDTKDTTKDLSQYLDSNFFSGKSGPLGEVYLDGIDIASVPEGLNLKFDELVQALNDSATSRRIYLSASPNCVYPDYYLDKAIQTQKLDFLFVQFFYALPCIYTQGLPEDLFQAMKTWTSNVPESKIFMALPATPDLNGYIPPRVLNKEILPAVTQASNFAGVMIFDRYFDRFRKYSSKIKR

Ka: 2.9×10^3
SMILES: CC(=O)N[C@H]1C(O)O[C@H](CO)[C@@H](O)[C@@H]1O (stereo partly shown) [N-acetyl glucosamine]
